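Method: 48-hour compound exposure of cells in 96-well plates, five concentrations, linear interpolation of endpoints. At the TGI there is no net growth.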
Key:
Assay in all cases: NCI anticancer screen, dose series, 48 h
OVCAR-8 ovarian = system: OVCAR-8 ovarian
UACC-257 melanoma = system: UACC-257 melanoma
RXF 393 renal = system: RXF 393 renal
SK-MEL-5 melanoma = system: SK-MEL-5 melanoma
DLD-1 colon = system: DLD-1 colon
TK-10 renal = system: TK-10 renal
HOP-62 NSCLC = system: HOP-62 NSCLC
COLO 205 colon = system: COLO 205 colon
RXF-631 renal = system: RXF-631 renal
ACHN renal = system: ACHN renal
SR leukemia = system: SR leukemia
EKVX NSCLC = system: EKVX NSCLC
DMS 114 small cell lung = system: DMS 114 small cell lung
HOP-18 NSCLC = system: HOP-18 NSCLC
UACC-62 melanoma = system: UACC-62 melanoma
HL-60(TB) leukemia = system: HL-60(TB) leukemia
SNB-78 CNS = system: SNB-78 CNS
UO-31 renal = system: UO-31 renal
DMS 273 small cell lung = system: DMS 273 small cell lung
A549 NSCLC = system: A549 NSCLC
HOP-92 NSCLC = system: HOP-92 NSCLC
SK-MEL-28 melanoma = system: SK-MEL-28 melanoma
LOX IMVI melanoma = system: LOX IMVI melanoma
CCRF-CEM leukemia = system: CCRF-CEM leukemia
IGROV1 ovarian = system: IGROV1 ovarian
SNB-75 CNS = system: SNB-75 CNS
RPMI-8226 leukemia = system: RPMI-8226 leukemia
SK-OV-3 ovarian = system: SK-OV-3 ovarian
SF-268 CNS = system: SF-268 CNS
NCI-H460 lung = system: NCI-H460 lung
M19-MEL melanoma = system: M19-MEL melanoma
OVCAR-5 ovarian = system: OVCAR-5 ovarian
HCT-15 colon = system: HCT-15 colon
HCT-116 colon = system: HCT-116 colon
MOLT-4 leukemia = system: MOLT-4 leukemia
SK-MEL-2 melanoma = system: SK-MEL-2 melanoma
SW-620 colon = system: SW-620 colon
SF-539 CNS = system: SF-539 CNS
M14 melanoma = system: M14 melanoma
KM20L2 colon = system: KM20L2 colon
SF-295 CNS = system: SF-295 CNS
KM12 colon = system: KM12 colon
786-0 renal = system: 786-0 renal
SNB-19 CNS = system: SNB-19 CNS
NCI-H23 lung = system: NCI-H23 lung
HT29 colon = system: HT29 colon
NCI-H522 lung = system: NCI-H522 lung
MALME-3M melanoma = system: MALME-3M melanoma
U251 CNS = system: U251 CNS
SN12C renal = system: SN12C renal
NCI-H226 lung = system: NCI-H226 lung
OVCAR-3 ovarian = system: OVCAR-3 ovarian
LXFL 529 NSCLC = system: LXFL 529 NSCLC
K-562 leukemia = system: K-562 leukemia
HCC-2998 colon = system: HCC-2998 colon

`COC(=O)/C=C(\C(=O)OC)c1c2c3c(cc(OC)c(OC)c3c3ccccc13)CCN2C` was tested, and the TGI (OVCAR-8 ovarian) was over 100 µM, the TGI (UACC-257 melanoma) was 89.7 µM and the TGI (RXF 393 renal) was over 100 µM. It also gave a TGI (SK-MEL-5 melanoma) of 34.3 µM, a TGI (DLD-1 colon) of over 100 µM and a TGI (TK-10 renal) of over 100 µM. For the same compound, the TGI (HOP-62 NSCLC) was 76.7 µM, the TGI (COLO 205 colon) was 31.7 µM and the TGI (RXF-631 renal) was over 100 µM. It also gave a TGI (ACHN renal) of over 100 µM, a TGI (SR leukemia) of over 100 µM and a TGI (EKVX NSCLC) of over 100 µM. For the same compound, the TGI (DMS 114 small cell lung) was 80.7 µM, the TGI (HOP-18 NSCLC) was over 100 µM and the TGI (UACC-62 melanoma) was over 100 µM. The TGI (HL-60(TB) leukemia) was 56.3 µM, the TGI (SNB-78 CNS) was over 100 µM and the TGI (UO-31 renal) was over 100 µM. The TGI (DMS 273 small cell lung) was 50.9 µM, the TGI (A549 NSCLC) was over 100 µM and the TGI (HOP-92 NSCLC) was over 100 µM. For the same compound, the TGI (SK-MEL-28 melanoma) was over 100 µM, the TGI (LOX IMVI melanoma) was over 100 µM and the TGI (CCRF-CEM leukemia) was 85.4 µM. It also gave a TGI (IGROV1 ovarian) of 99.4 µM, a TGI (SNB-75 CNS) of over 100 µM and a TGI (RPMI-8226 leukemia) of over 100 µM. The TGI (SK-OV-3 ovarian) was over 100 µM, the TGI (SF-268 CNS) was over 100 µM and the TGI (NCI-H460 lung) was over 100 µM. For the same compound, the TGI (M19-MEL melanoma) was over 100 µM, the TGI (OVCAR-5 ovarian) was over 100 µM and the TGI (HCT-15 colon) was over 100 µM. The TGI (HCT-116 colon) was over 100 µM, the TGI (MOLT-4 leukemia) was 89.5 µM and the TGI (SK-MEL-2 melanoma) was over 100 µM. It also gave a TGI (SW-620 colon) of over 100 µM, a TGI (SF-539 CNS) of 75.4 µM and a TGI (M14 melanoma) of over 100 µM. For the same compound, the TGI (KM20L2 colon) was over 100 µM, the TGI (SF-295 CNS) was over 100 µM and the TGI (KM12 colon) was over 100 µM. The TGI (786-0 renal) was over 100 µM, the TGI (SNB-19 CNS) was over 100 µM and the TGI (NCI-H23 lung) was over 100 µM. For the same compound, the TGI (HT29 colon) was over 100 µM, the TGI (NCI-H522 lung) was 74 µM and the TGI (MALME-3M melanoma) was over 100 µM. The TGI (U251 CNS) was over 100 µM, the TGI (SN12C renal) was over 100 µM and the TGI (NCI-H226 lung) was over 100 µM. The TGI (OVCAR-3 ovarian) was over 100 µM, the TGI (LXFL 529 NSCLC) was over 100 µM and the TGI (K-562 leukemia) was 90.8 µM. The TGI (HCC-2998 colon) was over 100 µM.

— PubChem BioAssay (NCI)
